Measured values taken from BindingDB's records for doi:10.1021/acs.jnatprod.9b00648 (Seoul National University, 2019).

Test: Inhibition of VEGFR2 in HUVEC assessed as inhibition of VEGF-induced tube formation incubated for 8 hrs by inverted microscopic method

Question: With `C/C=C(\C)C(=O)O[C@@H]1C2=C(C)C(=O)N[C@]2(O)C[C@@]2(C)O[C@@H]2CC[C@@]2(C)O[C@H]12` as the molecule, how does the IC50 read?
Answer: Its IC50 is 40.4 µM.
